The source of these data is ChEMBL document CHEMBL1131057, “Peptidomimetic growth hormone secretagogues. Design considerations and therapeutic potential” (J Med Chem, 1998).

Data set [1] has as its system Rattus norvegicus. In words: In Vivo efficacy was evaluated for growth hormone release. Type of data set: functional, organism-based.
Data set [2] is filed under the species Rattus norvegicus. In words: compound was evaluated for GH release in rat. It counts as functional.
The test system of data set [3] is Rattus norvegicus. Kind of data set: Compound was tested for effective dose rquired for GH release following iv administration to 4-week old anesthetized Sprague-Dawley rats. Type of data set: functional.
The species entered for data set [4] is Rattus norvegicus. Kind of data set: compound was evaluated for GH release in the rat pituitary cell culture assay. It counts as functional. The settings on record: Pituitary gland cell.
The species named for data set [5] is Rattus norvegicus. In words: In vitro efficacy was evaluated for growth hormone release.
The species entered for data set [6] is Rattus norvegicus. In words: compound was evaluated for GH release in the rat. Type of data set: functional, organism-based.
A further data set has as its target T1, Oxytocin receptor (Homo sapiens, UniProt P30559).
T1 sequence (P30559 whole entry): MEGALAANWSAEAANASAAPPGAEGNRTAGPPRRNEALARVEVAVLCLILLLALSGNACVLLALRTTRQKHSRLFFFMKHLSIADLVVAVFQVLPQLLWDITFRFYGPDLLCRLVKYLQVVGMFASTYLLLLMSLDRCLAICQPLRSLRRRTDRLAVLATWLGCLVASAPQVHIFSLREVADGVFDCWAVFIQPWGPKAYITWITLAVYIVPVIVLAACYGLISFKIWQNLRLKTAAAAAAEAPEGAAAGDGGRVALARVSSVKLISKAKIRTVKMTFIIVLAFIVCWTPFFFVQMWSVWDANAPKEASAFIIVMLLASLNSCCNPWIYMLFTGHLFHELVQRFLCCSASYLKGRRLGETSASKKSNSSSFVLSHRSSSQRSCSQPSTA
Kind of data set: Antagonistic activity against Oxytocin receptor. It counts as functional.

Data set [7] can be described thus: Half-life period measured in dog. Type of data set: ADME, organism-based, Canis lupus familiaris. To be noted: in vivo.
The species entered for data set [8] is Rattus norvegicus. Kind of data set: compound was evaluated for GH release in the rat; 10-30 ng/mL. It counts as functional, organism-based.
For data set [9], the system named is Rattus norvegicus. Kind of data set: Compound was measured for elevated levels of GH release in infant rats after administration subcutaneously at 300 ug/kg. Type of data set: functional, organism-based.
Data set [10] is filed under the species Rattus norvegicus. In words: Compound measured for stimulated GH release. Type of data set: functional, organism-based.
Data set [11] has as its target Growth hormone secretagogue receptor type 1 (Homo sapiens, UniProt Q92847). In words: Inhibitory concentration (biotinylated probe) is evaluated for [35S]- MK-0677 binding.
In a further data set the test system is Canis familiaris. In words: Loss of body weight in dog is evaluated after compound was administered perorally to dog at a dose 5 mg/kg, once daily (control (wt) = 1.13+/-0.19). Type of data set: functional, Canis lupus familiaris. To be noted: route oral.
The species named for data set [12] is Sus scrofa. Kind of data set: Compound was measured for IGF-1 increases in swine on days 4, 7, 10, and 14 approximately. It counts as functional.
Data set [13] can be described thus: The intrinsic potency studied extensively in animals. Type of data set: functional.
The species entered for data set [14] is Sus scrofa. Kind of data set: Compound was measured for elevated mean plasma IGF-1 (insulin like growth factor) concentrations in Swine. It counts as functional, organism-based.

pEC50, pIC50: −log10 of the molar value. Where a SMILES comes first, the peptide text is derived from it. [ ]: non-standard residue; d: D form. dTrp(2-Me) = Cc1[nH]c2ccccc2c1C[C@@H](N)C(=O)O; Trp(2-Me) = Cc1[nH]c2ccccc2c1C[C@H](N)C(=O)O; d2Nal = N[C@H](Cc1ccc2ccccc2c1)C(=O)O; 3Amb = NCc1cccc(C(=O)O)c1; GABA = NCCCC(=O)O

Growth hormone secretagogue receptor type 1, sequence (Q92847 whole entry): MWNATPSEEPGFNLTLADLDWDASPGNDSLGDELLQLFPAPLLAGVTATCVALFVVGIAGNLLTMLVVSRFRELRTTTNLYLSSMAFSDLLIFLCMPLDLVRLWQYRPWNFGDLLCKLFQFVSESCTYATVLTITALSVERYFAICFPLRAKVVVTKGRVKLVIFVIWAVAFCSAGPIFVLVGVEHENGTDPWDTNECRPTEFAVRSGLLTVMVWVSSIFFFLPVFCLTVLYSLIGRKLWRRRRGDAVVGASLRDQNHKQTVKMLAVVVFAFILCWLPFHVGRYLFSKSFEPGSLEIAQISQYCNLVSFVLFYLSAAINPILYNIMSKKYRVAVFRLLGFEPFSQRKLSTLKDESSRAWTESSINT

In the data set on Rattus norvegicus [1], `CC(C)(N)CC(=O)NC1CCc2ccccc2N(Cc2ccc(-c3ccccc3C(=O)O)cc2)C1=O` (stereo unspecified) had a pEC50 of 5.52.

`Cc1[nH]c2ccccc2c1C[C@@H](NC(=O)[C@@H](N)Cc1c[nH]cn1)C(=O)N[C@@H](C)C(=O)N[C@@H](Cc1c[nH]c2ccccc12)C(=O)N[C@H](Cc1ccccc1)C(=O)N[C@@H](CCCCN)C(N)=O` [EXAMORELIN] (H-H[dTrp(2-Me)]AW[dF]K-NH2) displayed an Activity in the data set listed under Rattus norvegicus [2] of 104 ng/mL. With `Cc1ccc(S(=O)(=O)Nc2ccc3c(c2)CCN(C(=O)[C@@H](Cc2c[nH]c4ccccc24)NC(=O)C(C)(C)N)C3)cc1`, the 50% effective dose (ED50) in the data set with Rattus norvegicus [3] was more than 10 mg/kg. In addition, the pEC50 in the data set listed under Rattus norvegicus [4] is 8.52. In turn, `CN(C)S(=O)(=O)c1ccc2c(c1)CN(C(=O)[C@@H](Cc1c[nH]c3ccccc13)NC(=O)C(C)(C)N)CC2` showed an ED50 with Rattus norvegicus [3] of 3 mg/kg. The pEC50 in the data set filed under Rattus norvegicus [4] is 7.52. On to `C[C@@H](O)CNC(C)(C)CC(=O)N[C@@H]1CCc2ccccc2N(Cc2ccc(-c3ccccc3-c3nn[nH]n3)cc2)C1=O` [L-692585], for which the pEC50 in the data set filed under Rattus norvegicus [5] was 8.52. Take `NCCCC[C@H](NC(=O)[C@H](Cc1ccccc1)NC(=O)[C@@H](Cc1ccc2ccccc2c1)NC(=O)[C@@H](Cc1ccc2ccccc2c1)NC(=O)C1CCNCC1)C(N)=O`: the pEC50 in the data set listed under Rattus norvegicus [6] was 9.74. For the compound `CC1(C)C2CCC1(CS(=O)(=O)N1CCC3(CCc4ccccc43)CC1)C(NC(=O)C1CCCNC1)C2` [L-368112], at Oxytocin receptor, the pIC50 is 7.17. In addition, in the data set filed under Rattus norvegicus [5], the pEC50 is 6.52. `O=C(NC(Cc1c[nH]c2ccccc12)C(=O)N1CCC2(CCc3ccccc32)CC1)NC1CN2CCC1CC2` (stereo unspecified) [SPIROPIPERIDINE] had a pIC50 in the data set listed under Rattus norvegicus [4] of 7.30. On to `CCOC(=O)[C@H]1CC2(CCN(C(=O)[C@@H](CCCc3ccccc3)NC(=O)C(C)(C)N)CC2)c2ccccc21`, for which, in the data set listed under Rattus norvegicus [4], the pEC50 was 8.72. This compound showed a half-life in data set [7] of 1.7 h. Regarding `C[C@H](NC(=O)[C@H](Cc1c[nH]c2ccccc12)NC(=O)[C@@H](N)Cc1ccc(O)cc1)C(=O)N[C@@H](Cc1c[nH]c2ccccc12)C(=O)N[C@H](Cc1ccccc1)C(N)=O`, in the data set filed under Rattus norvegicus [8], the Concentration was 30 ng/mL.

As for `Cc1[nH]c2ccccc2c1C[C@H](NC(=O)[C@@H](Cc1c(C)[nH]c2ccccc12)NC(=O)[C@@H](Cc1c(C)[nH]c2ccccc12)NC(=O)CCCN)C(=O)N[C@@H](CCCCN)C(N)=O` (H-[GABA][dTrp(2-Me)][dTrp(2-Me)][Trp(2-Me)]K-NH2), the Concentration with Rattus norvegicus [9] was found to be 200 ng/mL. On to `CNC(=O)Nc1ccccc1-c1ccc(CN2C(=O)[C@H](NC(=O)CC(C)(C)N)CCc3ccccc32)cc1`, for which, in the data set filed under Rattus norvegicus [4], the pEC50 was 7.30. In the data set filed under Rattus norvegicus [5], `CC(C)(CC(=O)N[C@@H]1CCc2ccccc2N(Cc2ccc(-c3ccccc3C(N)=O)cc2)C1=O)NC[C@H](O)CO` showed a pEC50 of 8.52. Take `O=C(N[C@H](Cc1ccc2ccccc2c1)C(=O)N[C@@H](CO)Cc1c[nH]c2ccccc12)C1CCNCC1`: the pEC50 in the data set listed under Rattus norvegicus [4] is 7.97. On the same count and under the same terms, the result for `NCCCC[C@H](NC(=O)[C@@H](Cc1ccccc1)NC(=O)[C@@H](Cc1ccc2ccccc2c1)NC(=O)c1cccc(CN)c1)C(N)=O` (H-[3Amb][d2Nal][dF]K-NH2) reads 8.15; that for `CC(C)(N)C(=O)N[C@H](Cc1c[nH]c2ccccc12)C(=O)N1CCc2ccc(S(N)(=O)=O)cc2C1`, 8.52.

Take `CC(C)(N)C(=O)N[C@H](COCc1ccccc1)C(=O)N1CCC2(CC1)CN(S(=O)(=O)CC(=O)NCCCCCCNC(=O)CCCC[C@@H]1SCC3NC(=O)NC31)c1ccccc12` (stereo partly specified): in the data set filed under Rattus norvegicus [10], the pEC50 was 8.60. In [11], this compound had a pIC50 of 9.70. As to `CC(C)(N)C(=O)N[C@H](CCCc1ccccc1)C(=O)N1CCC2(CC1)CN(S(C)(=O)=O)c1ccccc12`, the Body weight with Canis familiaris was determined as 0.21 kg. For the same compound, in the data set listed under Sus scrofa [12], the Increase is reported as 60%. The same compound showed a pEC50 in data set [13] of 8.82. This compound also showed a Plasma concentration in the data set filed under Sus scrofa [14] of 62%.
